Measurements as given in patent US20160158317A1, “Antimicrobial Peptide Variants and Polynucleotides Encoding Same” (Adenium Biotech A/S, priority 2010, published 2016).
Where a SMILES comes first, the peptide text is derived from it. Bridges are numbered along the chain shown (N, C = ends).

assay: Determination of the protein binding (90% serum, 30 kDa filter, HPLC); format: in vitro ADME; settings: serum
Protocol: Protein binding assays were performed as follows. The purified peptides were mixed with 90% serum and centrifuged through a 30 kDa filter. The ultra-filtrate and the non filtrated serum samples were quantified by HPLC measurements and the protein binding was subsequently calculated.

SMILES | fraction unbound
CC(C)[C@@H]1NC(=O)CNC(=O)[C@H](CC(N)=O)NC(=O)[C@H](CCCNC(=N)N)NC(=O)[C@H](Cc2ccc(O)cc2)NC(=O)[C@H](C(C)C)NC(=O)[C@@H]2CSSC[C@H](NC(=O)[C@H]([C@@H](C)O)NC(=O)[C@H](CCCNC(=N)N)NC1=O)C(=O)N[C@@H](Cc1ccc(O)cc1)C(=O)N[C@@H](CCCNC(=N)N)C(=O)N[C@@H](CCCNC(=N)N)C(=O)N[C@H](C(=O)N[C@@H](CC(N)=O)C(=O)O)CSSC[C@H](NC(=O)[C@H](Cc1ccccc1)NC(=O)CN)C(=O)N[C@@H](Cc1ccc(O)cc1)C(=O)N[C@@H](CCCNC(=N)N)C(=O)N[C@@H](C(C)C)C(=O)N2 [compound 209] (H-GFCYRVCVYRNGVRTCYRRCN-OH; disulfide 3-20, 7-16 (inferred); N-terminus and C-terminus assumed) | 0.11
CC(C)[C@@H]1NC(=O)CNC(=O)[C@H](CC(N)=O)NC(=O)[C@H](CCCNC(=N)N)NC(=O)[C@H](Cc2ccc(O)cc2)NC(=O)[C@H](C(C)C)NC(=O)[C@@H]2CSSC[C@H](NC(=O)[C@H](C(C)C)NC(=O)[C@H](CCCNC(=N)N)NC1=O)C(=O)N[C@@H](Cc1c[nH]cn1)C(=O)N[C@@H](CCCNC(=N)N)C(=O)N[C@@H](CCCNC(=N)N)C(=O)N[C@H](C(=O)N[C@@H](CC(N)=O)C(=O)O)CSSC[C@H](NC(=O)[C@H](Cc1ccccc1)NC(=O)CN)C(=O)N[C@@H](Cc1ccc(O)cc1)C(=O)N[C@@H](CCCNC(=N)N)C(=O)N[C@@H](C(C)C)C(=O)N2 [compound 210] (H-GFCYRVCVYRNGVRVCHRRCN-OH; disulfide 3-20, 7-16 (inferred); N-terminus and C-terminus assumed) | 0.11
CC(C)[C@@H]1NC(=O)CNC(=O)[C@H](CC(N)=O)NC(=O)[C@H](CCCNC(=N)N)NC(=O)[C@H](Cc2ccc(O)cc2)NC(=O)[C@H](C(C)C)NC(=O)[C@@H]2CSSC[C@H](NC(=O)[C@H](C(C)C)NC(=O)[C@H](CCCNC(=N)N)NC1=O)C(=O)N[C@@H](CO)C(=O)N[C@@H](CCCNC(=N)N)C(=O)N[C@@H](CCCNC(=N)N)C(=O)N[C@H](C(=O)N[C@@H](CC(N)=O)C(=O)O)CSSC[C@H](NC(=O)[C@H](Cc1ccccc1)NC(=O)CN)C(=O)N[C@@H](Cc1ccc(O)cc1)C(=O)N[C@@H](CCCNC(=N)N)C(=O)N[C@@H](C(C)C)C(=O)N2 [compound 211] (H-GFCYRVCVYRNGVRVCSRRCN-OH; disulfide 3-20, 7-16 (inferred); N-terminus and C-terminus assumed) | 0.04
CC(C)[C@@H]1NC(=O)[C@@H]2CSSC[C@H](NC(=O)[C@H](CO)NC(=O)[C@H](CCCNC(=N)N)NC(=O)[C@H](C)NC(=O)CNC(=O)[C@H](CC(N)=O)NC(=O)[C@H](CCCNC(=N)N)NC(=O)[C@H](Cc3ccc(O)cc3)NC1=O)C(=O)N[C@@H](Cc1ccc(O)cc1)C(=O)N[C@@H](CCCNC(=N)N)C(=O)N[C@@H](CCCNC(=N)N)C(=O)N[C@H](C(=O)N[C@@H](CC(N)=O)C(=O)O)CSSC[C@H](NC(=O)[C@H](Cc1ccccc1)NC(=O)CN)C(=O)N[C@@H](Cc1c[nH]c3ccccc13)C(=O)N[C@@H](Cc1c[nH]cn1)C(=O)N[C@@H](C(C)C)C(=O)N2 [compound 213] (H-GFCWHVCVYRNGARSCYRRCN-OH; disulfide 3-20, 7-16 (inferred); N-terminus and C-terminus assumed) | 0.05
CC(C)[C@@H]1NC(=O)CNC(=O)[C@H](CC(N)=O)NC(=O)[C@H](CCCNC(=N)N)NC(=O)[C@H](CCCNC(=N)N)NC(=O)[C@H](C)NC(=O)[C@@H]2CSSC[C@H](NC(=O)[C@H](C(C)C)NC(=O)[C@H](CCCNC(=N)N)NC1=O)C(=O)N[C@@H](Cc1ccc(O)cc1)C(=O)N[C@@H](CCCNC(=N)N)C(=O)N[C@@H](CCCNC(=N)N)C(=O)N[C@H](C(=O)N[C@@H](CC(N)=O)C(=O)O)CSSC[C@H](NC(=O)[C@H](Cc1ccccc1)NC(=O)CN)C(=O)N[C@@H](Cc1c[nH]c3ccccc13)C(=O)N[C@@H](Cc1c[nH]cn1)C(=O)N[C@@H](C(C)C)C(=O)N2 [compound 218] (H-GFCWHVCARRNGVRVCYRRCN-OH; disulfide 3-20, 7-16 (inferred); N-terminus and C-terminus assumed) | 0.01
CC(C)[C@@H]1NC(=O)[C@H](Cc2c[nH]cn2)NC(=O)[C@H](Cc2c[nH]c3ccccc23)NC(=O)[C@@H](NC(=O)[C@H](Cc2ccccc2)NC(=O)CN)CSSC[C@@H](C(=O)N[C@@H](CC(N)=O)C(=O)O)NC(=O)[C@H](CCCNC(=N)N)NC(=O)[C@H](CCCNC(=N)N)NC(=O)[C@H](Cc2ccc(O)cc2)NC(=O)[C@@H]2CSSC[C@H](NC1=O)C(=O)N[C@@H](Cc1c[nH]cn1)C(=O)N[C@@H](Cc1ccc(O)cc1)C(=O)N[C@@H](CCCNC(=N)N)C(=O)N[C@@H](CC(N)=O)C(=O)N[C@@H](CO)C(=O)N[C@@H](C(C)C)C(=O)N[C@@H](CCCNC(=N)N)C(=O)N[C@@H](C(C)C)C(=O)N2 [compound 219] (H-GFCWHVCHYRNSVRVCYRRCN-OH; disulfide 3-20, 7-16 (inferred); N-terminus and C-terminus assumed) | 0.01
CC(C)[C@@H]1NC(=O)[C@@H]2CSSC[C@H](NC(=O)[C@H](C(C)C)NC(=O)[C@H](CCCNC(=N)N)NC(=O)[C@H](C(C)C)NC(=O)[C@H](CCCCN)NC(=O)[C@H](CC(N)=O)NC(=O)[C@H](CCCNC(=N)N)NC(=O)[C@H](Cc3ccc(O)cc3)NC1=O)C(=O)N[C@@H](Cc1c[nH]cn1)C(=O)N[C@@H](CCCNC(=N)N)C(=O)N[C@@H](CCCNC(=N)N)C(=O)N[C@H](C(=O)N[C@@H](CC(N)=O)C(=O)O)CSSC[C@H](NC(=O)[C@H](Cc1ccccc1)NC(=O)CN)C(=O)N[C@@H](Cc1c[nH]c3ccccc13)C(=O)N[C@@H](CC(N)=O)C(=O)N[C@@H](C(C)C)C(=O)N2 [compound 227] (H-GFCWNVCVYRNKVRVCHRRCN-OH; disulfide 3-20, 7-16 (inferred); N-terminus and C-terminus assumed) | 0.2
CC(C)[C@@H]1NC(=O)[C@@H]2CSSC[C@H](NC(=O)[C@H](C(C)C)NC(=O)[C@H](CCCNC(=N)N)NC(=O)[C@H](C(C)C)NC(=O)[C@H](CCCNC(=N)N)NC(=O)[C@H](CC(N)=O)NC(=O)[C@H](CCCNC(=N)N)NC(=O)[C@H](Cc3ccc(O)cc3)NC1=O)C(=O)N[C@@H](Cc1c[nH]cn1)C(=O)N[C@@H](CCCNC(=N)N)C(=O)N[C@@H](CCCNC(=N)N)C(=O)N[C@H](C(=O)N[C@@H](CC(N)=O)C(=O)O)CSSC[C@H](NC(=O)[C@H](Cc1ccccc1)NC(=O)CN)C(=O)N[C@@H](Cc1c[nH]c3ccccc13)C(=O)N[C@@H](CC(N)=O)C(=O)N[C@@H](C(C)C)C(=O)N2 [compound 228] (H-GFCWNVCVYRNRVRVCHRRCN-OH; disulfide 3-20, 7-16 (inferred); N-terminus and C-terminus assumed) | 0.14
CC(C)[C@@H]1NC(=O)[C@@H]2CSSC[C@H](NC(=O)[C@H](C(C)C)NC(=O)[C@H](CCCNC(=N)N)NC(=O)[C@H](C(C)C)NC(=O)[C@H](Cc3ccc(O)cc3)NC(=O)[C@H](CC(N)=O)NC(=O)[C@H](CCCNC(=N)N)NC(=O)[C@H](Cc3ccc(O)cc3)NC1=O)C(=O)N[C@@H](Cc1c[nH]cn1)C(=O)N[C@@H](CCCNC(=N)N)C(=O)N[C@@H](CCCNC(=N)N)C(=O)N[C@H](C(=O)N[C@@H](CC(N)=O)C(=O)O)CSSC[C@H](NC(=O)[C@H](Cc1ccccc1)NC(=O)CN)C(=O)N[C@@H](Cc1c[nH]c3ccccc13)C(=O)N[C@@H](CC(N)=O)C(=O)N[C@@H](C(C)C)C(=O)N2 [compound 229] (H-GFCWNVCVYRNYVRVCHRRCN-OH; disulfide 3-20, 7-16 (inferred); N-terminus and C-terminus assumed) | 0.09
